How the values were obtained:
[1] = system: THP-1 xenograft; assay: THP-1 leukemia xenograft model; assay type: in vivo, CB.17 SCID mice; details: 120 mg/kg PO twice per day, 5 days per week, 4 weeks
Method: Six to seven weeks old male CB.17 SCID mice were purchased from BioLasco Taiwan Co., LTD. and quarantined for one week. During experiment period, 5 mice will be housed in one cage. All animals will be hosted in the Da-Hu animal facility in a 12-h light/12-h dark cycle at 19-25° C. Animals have free access to rodent pellet food and water ad libitum. The experimental protocol of animal study was reviewed and approved by the Institutional Animal Care and Use Committee, DCB. Compound 1 was diluted in olive oil to final concentrations of 12 mg/mL.
Tumor cell line: THP-1 cells (leukemia) were cultured in RPMI-1640 medium or DMEM medium which supplemented with 10% heat inactivated fetal bovine serum. The cells were cultured in tissue culture flasks in a humidified incubator at 37° C., in an atmosphere of 5% CO2 and 95% air.
The human cancer cells used for implantation were harvested during log phase growth and resuspended in phosphate buffered saline to a concentration containing 2×10^7 cells/mL of THP-1, in 0.1 mL of a 50% Matrigel solution (BD Biosciences, MA, USA). […] Volume was calculated using the formula: Tumor Volume=(w^2×l)/2 where w=width and l=length in diameter (mm) of the tumor. […]
Tumors were measured twice per week using calipers. […] The body weight change was calculated as the percentage increase in body weight compared to the initial body weight. […]

[2] = system: H838; assay: CCK-8 cell viability assay, H838; assay type: cell-based; details: Homo sapiens, NCI-H838, 48 h, 48 h treatment; means ± S.E.M.
Method: Human hepatoma (HepG2, Hep3B), human lung adenocarcinoma (A549, H838), and human myelogenous leukemia (K562) cell lines were obtained from American Type Culture Collection (Rockville, Md., USA). Human prostate cancer cell lines (LNCaP and DU145), human breast carcinoma (MCF-7), human bladder carcinoma (TSGH 8301) and human pancreas adenocarcinoma (BxPC-3) were obtained from BCRC (Bioresource Collection and Research Center, Hsinchu, Taiwan). HepG2, DU145 and MCF-7 cell lines were cultured in Minimum Essential Medium Alpha (Invitrogen/Gibco BRL, Grand Island, N.Y., USA). A549 cells were cultured in Dulbecco's modified Eagle's medium (Invitrogen/Gibco BRL). […]
Cell viability was measured using Cell Counting Kit-8 (CCK-8, Enzo Life Sciences, Farmingdale, N.Y.). […] The concentration of formazan was measured with a spectrophotometer at an absorbance wavelength of 450 nm. Cell viability was expressed as a percentage of the corresponding control.
To determine whether the cytotoxic effects of Compound 1 correlate with the presence of Ras mutations, cell lines derived from human lung cancer (A549 and H838), liver cancer (HepG2 and Hep3B), and leukemia (K562 and THP-1) with wild-type Ras (H838, Hep3B, and K562) or mutant Ras (A549, HepG2, and THP-1) were used. Cell viability was measured after 48 h of Compound 1 treatment.

[3] = system: Ras; assay: Immunoblot of unprocessed and processed Ras in cancer cell lines; assay type: cell-based, human; details: H838 cells, 24 h
Method: FIG. 2A-C show illustrative effective results of the exemplary Compound 1 inhibiting Ras processing in cancer cell lines. (2A) A549 and H838 cells were treated with different concentrations of Compound 1 and grown under serum (10% FBS) or serum-free (no FBS) conditions for 24 h. (2B) H838, (2C) HepG2 and K562 cells were treated with different concentrations of Compound 1 and grown under serum-free (no FBS) conditions for 24 h. Whole cell lysates were then immunoblotted with a Ras antibody. A duplicate membrane was probed with a GAPDH antibody. The relative expression level of unprocessed to processed Ras was quantified by densitometry. The experiments were conducted three times. […]
FIG. 3A-C show illustrative effective results of Compound 1 inhibiting the prenylation activity of farnesyltransferase in vitro and competes with FPP within cells. […] The relative expression level of unprocessed to processed Ras was quantified by densitometry. […]
Sixty micrograms of total protein lysates measured using a Bradford assay (Sigma-Aldrich, St. Louis, Mo., USA) were resolved on 12.5% SDS-polyacrylamide gels. […] Secondary antibodies were conjugated to horseradish peroxidase, which was detected using a 3,3′-diaminobenzidine substrate kit (Vector Laboratories, Burlingame, Calif.). The immunoreactive bands were quantified by densitometry using Image-Pro Plus software (Media Cybernetics, Silver Spring, Md.). […]

SMILES: COC1=C(OC)C(O)C(C/C=C(\C)CC/C=C(\C)CCC=C(C)C)C(C)C1=O (stereo not shown) [Compound 1, 4-hydroxy-2,3-dimethoxy-6-methyl-5-(3,7,11-trimethyldodeca-2,6,10-trienyl)cyclohex-2-enone]
- body weight [1]: almost no body weight changes

SMILES: COC1=C(OC)C(=O)C(C/C=C(\C)CC/C=C(\C)CCC=C(C)C)=C(C)C1=O [Compound 25, 2,3-dimethoxy-5-methyl-6-((2E,6E)-3,7,11-trimethyldodeca-2,6,10-trienyl)cyclohexa-2,5-diene-1,4-dione]
- IC50 [2]: 22.6 ± 6.45 µM

SMILES: CC(C)=CCC/C(C)=C/CC/C(C)=C/COP(=O)(O)OP(=O)(O)O [FPP]
- Ras processing, agent alone [3]: potentiated Ras processing
- FPP concentration neutralizing the effect of Compound 1 on Ras processing ([3]; competition assay): ≥ 10 µM

Reference: patent US9403747B2, “Methods and compositions for treating leukemia” (Golden Biotechnology Corporation, priority 2013, dated 2016)
